Data taken from patent US4785017A, “3,4-dihydro-2H-1-benzopyran derivatives” (Hoffmann-La Roche Inc., priority 1984, dated 1988).

Key:
[1] = tested on: leukotriene E4 induced bronchoconstriction; assay: Guinea Pig Bronchoconstriction, In Vivo (Aerosol), leukotriene E4 challenge; parameters: species or system guinea pig (Hartley strain); conditions: five minute aerosol exposure (% w/v aerosol solution); maximum constrictory dose of leukotriene E4 i.v.; propanolol pretreatment
Experimental: (b) Guinea Pig Bronchoconstriction, In Vivo (Aerosol):
Male guinea pigs (Hartley strain) weighing 300 to 500 g are anesthetized with urethane (2 g/kg) intraperitoneally and a polyethylene cannula is inserted into the jugular vein for drug administration. Tracheal pressure is recorded from a cannula inserted in the trachea and connected to a Statham pressure transducer. After surgical preparation of the animals, a period of time is allowed for pulmonary functions to stabilize. The test compound is administered according to the following protocol. Propanolol (0.1 mg/kg) is administered intravenously while the animals breathed spontaneously. Five minutes thereafter, the animals are exposed for a five minute period to a 1% (w/v) aerosol solution of test compound (adjusted to an alkaline pH where necessary for drug solubilization) or to distilled water of the appropriate pH (for control purposes). A Monaghan (Model 750) ultrasonic nebulizer is used to administer all test compounds by inhalation. The nebulizer ultrasonic frequency is adjusted to produce particles in the 1-8μ diameter range (average 3μ). Aqueous solutions are prepared freshly and introduced into the chamber of the nebulizer. The output of the nebulizer is made available to the animal by directing a bias flow of aerosol through a Y tube connected to the tracheal cannula. At the end of the exposure period, the animals are paralyzed with succinylcholine (1.2 mg/kg, i.v.) and mechanically respirated (Harvard rodent respirator) at 40 breaths/minute and 2.5 cc tidal volume. Animals are then challenged with a maximum constrictory dose of leukotriene E4 delivered intravenously 30 seconds after administration of the succinylcholine.
The change (cm H2 O) between pre and peak ventilatory pressure readings averaged for three control animals and five drug treated animals. The percent inhibition is calculated from the following formula: [formula] When various drug concentrations are tested, the percent inhibition at each concentration is plotted as log concentration (abscissa) versus percent inhibition (ordinate) and the IC50 is determined from linear regression analysis.

[2] = tested on: SRS-A-induced constriction of the guinea pig ileum; assay: Guinea Pig Ileum, In Vitro: inhibition of SRS-A-induced constriction (SRS-A antagonism); conditions: SRS-A antagonism; SRS-A at EC50, 37° C., with atropine sulfate and pyrilamine maleate; read-out: In vitro Guinea Pig ileum IC50
Experimental: (a) Guinea Pig Ileum, In Vitro:
The guinea pig ileum bioassay system has been described by Orange Austen, Adv. Immunol. […] A 1.5 cm segment is removed from animals weighing 300-400 g and suspended in an organ bath containing 10 ml of Tyrodes solution with 10^-6 M atropine sulfate and 10^-6 M pyrilamine maleate. […] The SRS-A utilized in this screen is obtained by challenging chopped lung fragments from actively sensitized guinea pigs with egg albumin, in vitro. A dose-response curve to SRS-A challenge is established for the ileum. […] The drug concentration which inhibits, by 50%, the SRS-A-induced constriction of the guinea pig ileum is determined.

[3] = tested on: leukotriene D4 induced bronchoconstriction; assay: Guinea Pig Bronchoconstriction, In Vivo (Aerosol), leukotriene D4 challenge; parameters: species or system guinea pig (Hartley strain); conditions: aerosol assay with leukotriene E4 replaced with leukotriene D4

For `CCCc1c(OCCCOc2ccc3c(c2)OCC(C(=O)O)C3)ccc(C(C)=O)c1O` (racemic) [racemic 7-[3-(4-acetyl-3-hydroxy-2-propylphenoxy)propoxy]-3,4-dihydro-2H-1-benzopyran-3-carboxylic acid], the “Guinea Pig Bronchoconstriction In vivo aerosol - IC50(%)” value [1] was over 1.0% and the IC50 [2] was 100 nM.
With `CCCc1c(OCCCOc2c(C)c(C)c3c(c2C)CCC(C)(CC(=O)O)O3)ccc(C(C)=O)c1O` (racemic) [racemic-6-[3-(4-acetyl-3-hydroxy-2-propylphenoxy)propoxy]-3,4-dihydro-2,5,7,8-tetramethyl-2H-1-benzopyran-2-acetic acid] the “Guinea Pig Bronchoconstriction In vivo aerosol - IC50(%)” value [1] was 1.0% and the IC50 [2] was 200 nM.
`CCCc1c(OCCCOc2c(C)c(C)c3c(c2C)CCC(C)(C(=O)O)O3)ccc(C(C)=O)c1O` (racemic) [racemic-6-[3-(4-acetyl-3-hydroxy-2-propylphenoxy)propoxy]-3,4-dihydro-2,5,7,8-tetramethyl-2H-1-benzopyran-2-carboxylic acid] was tested, and the “Guinea Pig Bronchoconstriction In vivo aerosol - IC50(%)” value [1] was 1.0% and the IC50 [2] was 100 nM.
`CCCc1c(OCCCOc2ccc3c(c2)CCC(C)(C(=O)O)O3)ccc(C(C)=O)c1O` (racemic) [racemic-6-[3-(4-acetyl-3-hydroxy-2-propylphenoxy)propoxy]-3,4-dihydro-2-methyl-2H-1-benzopyran-2-carboxylic acid] was tested, and the “Guinea Pig Bronchoconstriction In vivo aerosol - IC50(%)” value [1] was 0.20% and the IC50 [2] was 100 nM.
`CCCc1c(OCCCOc2ccc3c(c2)CCC(C)(CCC(=O)O)O3)ccc(C(C)=O)c1O` (racemic) [racemic-6-[3-(4-acetyl-3-hydroxy-2-propylphenoxy)propoxy]-3,4-dihydro-2-methyl-2H-1-benzopyran-2-propanoic acid] was tested, and the “Guinea Pig Bronchoconstriction In vivo aerosol - IC50(%)” value [1] was over 1.0% and the IC50 [2] was 500 nM.
In the case of `CCCc1c(OCCCOc2ccc3c(c2)CCC(CC(=O)O)O3)ccc(C(C)=O)c1O` (racemic) [racemic-6-[3-(4-acetyl-3-hydroxy-2-propylphenoxy)propoxy]-3,4-dihydro-2H-1-benzopyran-2-acetic acid], the “Guinea Pig Bronchoconstriction In vivo aerosol - IC50(%)” value [1] is reported as 1.0% and the IC50 [2] is reported as 400 nM.
For `CCCc1c(OCCCOc2ccc3c(c2)CCC(C(=O)O)O3)ccc(C(C)=O)c1O` (racemic) [racemic-6-[3-(4-acetyl-3-hydroxy-2-propylphenoxy)propoxy]-3,4-dihydro-2H-1-benzopyran-2-carboxylic acid], the “Guinea Pig Bronchoconstriction In vivo aerosol - IC50(%)” value [1] was 0.50% and the IC50 [2] was 500 nM.
For `CCCc1c(OCCCOc2c(C)c(C)c3c(c2C)CCC(C(=O)O)O3)ccc(C(C)=O)c1O` (racemic) [racemic-6-[3-(4-acetyl-3-hydroxy-2-propylphenoxy)propoxy]-3,4-dihydro-5,7,8-trimethyl-2H-1-benzopyran-2-carboxylic acid], the “Guinea Pig Bronchoconstriction In vivo aerosol - IC50(%)” value [1] was 1.0% and the IC50 [2] was 100 nM.
In the case of `CCCc1c(OCCCOc2c(C(C)=O)cc3c(c2CCC)OC(C)(CCC(=O)O)CC3)ccc(C(C)=O)c1O` (racemic) [racemic-6-acetyl-7-[3-(4-acetyl-3-hydroxy-2-n-propylphenoxy)propoxy]-3,4-dihydro-2-methyl-8-n-propyl-2H-1-benzopyran-2-propanoic acid], the “Guinea Pig Bronchoconstriction In vivo aerosol - IC50(%)” value [1] is reported as 0.12% and the IC50 [2] is reported as 80 nM.
For `CCCc1c(OCCCOc2cc3c(cc2C(C)=O)CCC(C(=O)O)O3)ccc(C(C)=O)c1O` (racemic) [racemic-6-acetyl-7-[3-(4-acetyl-3-hydroxy-2-propylphenoxy)propoxy]-3,4-dihydro-2H-2-benzopyran-2-carboxylic acid], the “Guinea Pig Bronchoconstriction In vivo aerosol - IC50(%)” value [1] was 0.20% and the IC50 [2] was 100 nM.
For `CCCc1c(OCCCOc2c(C(C)=O)cc3c(c2CCC)OC(C(=O)O)CC3)ccc(C(C)=O)c1O` (racemic) [racemic-6-acetyl-7-[3-(4-acetyl-3-hydroxy-2-propylphenoxy)propoxy]-3,4-dihydro-8-propyl-2H-1-benzopyran-2-carboxylic acid], the “Guinea Pig Bronchoconstriction In vivo aerosol - IC50(%)” value [1] was 0.38% and the IC50 [2] was 100 nM.
For `CCCc1c(OCCCCCOc2cc3c(cc2C(C)=O)CCC(C(=O)O)O3)ccc(C(C)=O)c1O` (racemic) [racemic-6-acetyl-7-[5-(4-acetyl-3-hydroxy-2-propylphenoxy)pentyloxy]-3,4-dihydro-2H-1-benzopyran-2-carboxylic acid], the “Guinea Pig Bronchoconstriction In vivo aerosol - IC50(%)” value [1] was 0.052%, the IC50 [2] was 60 nM and the “IC50 value in inhibiting bronchoconstriction (aerosol)” value [3] was 0.0056%.
For `CCCc1c(OCCCCCCCOc2cc3c(cc2C(C)=O)CCC(C(=O)O)O3)ccc(C(C)=O)c1O` (racemic) [racemic-6-acetyl-7-[7-(4-acetyl-3-hydroxy-2-propylphenoxy)heptyloxy]-3,4-dihydro-2H-1-benzopyran-2-carboxylic acid], the “Guinea Pig Bronchoconstriction In vivo aerosol - IC50(%)” value [1] was 1.0% and the IC50 [2] was 1000 nM.
For `CCCc1c(OCCCOc2ccc3c(c2CCC)OC(C)(CCC(=O)O)CC3)ccc(C(C)=O)c1O` (racemic) [racemic-7-[3-(4-acetyl-3-hydroxy-2-n-propylphenoxy)propoxy]-3,4-dihydro-2-methyl-8-n-propyl-2H-1-benzopyran-2-propanoic acid], the “Guinea Pig Bronchoconstriction In vivo aerosol - IC50(%)” value [1] was 0.71% and the IC50 [2] was 500 nM.
For `CCCc1c(OCCCOc2ccc3c(c2)OC(C(=O)O)CC3)ccc(C(C)=O)c1O` (racemic) [racemic-7-[3-(4-acetyl-3-hydroxy-2-propyl)phenoxy)propoxy]-3,4-dihydro-2H-1-benzopyran-2-carboxylic acid], the “Guinea Pig Bronchoconstriction In vivo aerosol - IC50(%)” value [1] was 0.14% and the IC50 [2] was 60 nM.
For `CCCc1c(OCCCOc2ccc3c(c2CCC)OC(C(=O)O)CC3)ccc(C(C)=O)c1O` (racemic) [racemic-7-[3-(4-acetyl-3-hydroxy-2-propyl)phenoxy)propoxy]-3,4-dihydro-8-propyl-2H-1-benzopyran-2-carboxylic acid], the “Guinea Pig Bronchoconstriction In vivo aerosol - IC50(%)” value [1] was 0.20% and the IC50 [2] was 100 nM.
In the case of `CCCc1c(OCCCOc2ccc3c(c2)OC(C)(CCC(=O)O)CC3)ccc(C(C)=O)c1O` (racemic) [racemic-7-[3-(4-acetyl-3-hydroxy-2-propylphenoxy)propoxy]-3,4-dihydro-2-methyl-2H-1-benzopyran-2-propanoic acid], the “Guinea Pig Bronchoconstriction In vivo aerosol - IC50(%)” value [1] is reported as over 1.0% and the IC50 [2] is reported as 100 nM.
For `CCCc1c(OCCCOc2ccc3c(c2)OC(CC(=O)O)CC3)ccc(C(C)=O)c1O` (racemic) [racemic-7-[3-(4-acetyl-3-hydroxy-2-propylphenoxy)propoxy]-3,4-dihydro-2H-1-benzopyran-2-acetic acid], the “Guinea Pig Bronchoconstriction In vivo aerosol - IC50(%)” value [1] was 0.67% and the IC50 [2] was 100 nM.
With `CCCc1c(OCCCOc2cc3c(cc2C(C)=O)OC(C)(C(=O)O)CC3)ccc(C(C)=O)c1O` (racemic) [racemic-7-acetyl-6-[3-(4-acetyl-3-hydroxy-2-propylphenoxy)propoxy]-3,4-dihydro-2-methyl-2H-1-benzopyran-2-carboxylic acid] the “Guinea Pig Bronchoconstriction In vivo aerosol - IC50(%)” value [1] was 1.0% and the IC50 [2] was 500 nM.
For `CCCc1c(OCCCOc2cc3c(cc2C(C)=O)OC(C(=O)O)CC3)ccc(C(C)=O)c1O` (racemic) [racemic-7-acetyl-6-[3-(4-acetyl-3-hydroxy-2-propylphenoxy)propoxy]-3,4-dihydro-2H-1-benzopyran-2-carboxylic acid], the “Guinea Pig Bronchoconstriction In vivo aerosol - IC50(%)” value [1] was 0.34% and the IC50 [2] was 200 nM.
With `CCCc1c(OCCCOc2ccc3c(c2C(C)=O)OC(C(=O)O)CC3)ccc(C(C)=O)c1O` (racemic) [racemic-8-acetyl-7[3-(4-acetyl-3-hydroxy-2-propylphenoxy)propoxy]-3,4-dihydro-2H-1-benzopyran-2-carboxylic acid] the “Guinea Pig Bronchoconstriction In vivo aerosol - IC50(%)” value [1] was 0.59% and the IC50 [2] was 300 nM.
For `CCCc1c(OCCCCCOc2cc3c(cc2C(C)=O)CC[C@H](C(=O)O)O3)ccc(C(C)=O)c1O` [(R)-6-acetyl-7-[5-(4-acetyl-3-hydroxy-2-propylphenoxy)pentyloxy]-3,4-dihydro-2H-1-benzopyran-2-carboxylic acid], the IC50 [2] was 100 nM and the “IC50 value in inhibiting bronchoconstriction (aerosol)” value [3] was 0.018%.
In the case of `CCCc1c(OCCCCCOc2cc3c(cc2C(C)=O)CC[C@@H](C(=O)O)O3)ccc(C(C)=O)c1O` [(S)-6-acetyl-7-[5-(4-acetyl-3-hydroxy-2-propylphenoxy)pentyloxy]-3,4-dihydro-2H-1-benzopyran-2-carboxylic acid], the IC50 [2] is reported as 60 nM and the “IC50 value in inhibiting bronchoconstriction (aerosol)” value [3] is reported as 0.0018%.
